Source: patent US20080312287A1, “Compound and Methods For the Treatment of Cancer and Malaria” (University of Washington, priority 2005, published 2008)
Read-outs that look alike come from different tables or passages of the source.

Assays:
P. falciparum K1 = test: P. falciparum ED50 determination, [3H]-hypoxanthine incorporation, strain K1; assay type: cell-based, Plasmodium falciparum; conditions: Plasmodium falciparum
Source text: (§1) Plasmodium strains. The P. falciparum strains used in this study were 3D7 (Netherlands, sensitive) provided by Dr. Pradipsinh Rathod from the University of Washington and K1 (Thailand, ChQ-R, Pyr-R) obtained from the MR4Unit of the American Type Culture Collection (ATCC, Manassas, Va.).
(§2) P. falciparum culture. Strains of P. falciparum were sustained in vitro based on experimental techniques as described by Trager and Jensen.^26 Cultures were maintained in RPMI-1640 (Sigma, St. Louis, […].) with 2 mM L-glutamine, 25 mM HEPES, 33 mM NaHCO3, 20 μg/ml gentamicin sulfate and 20% (v/v) heat-inactivated human plasma type A+ (R^P-20P). Type A+ erythrocytes were obtained from lab donors, washed three times with RPMI, re-suspended in 50% RPMI, and stored at 4° C. Parasites were grown in 10 mL of a 2% hematocrit/RP-20P (v/v) in 50-mL flasks under a 5% CO2, 5% O2, and 90% N2 atmosphere.
(§3) P. falciparum ED50 determination. One […]L of PFTI dissolved in DMSO was added to each well of a 96-well plate followed by the addition of 200 μL of P. falciparum culture at parasitemia and hematocrit of 0.5%. Plates were flushed with 5% CO2, 5% O2, and 90% N2 then incubated at 37° C. for 48 hr. [8-^3H]-hypoxanthine (0.3 μCi, 20 Ci/mmol, American Radiolabeled Chemicals) in 30 μL RP-20P was added to cultures and incubated for an additional 24 hours. Cells were harvested onto filter mats by a Multiharvester (Skatron, Sunnyvale, Calif.) and the radioactivity incorporated into the parasites was counted on a β-scintillation counter. The background level detected with uninfected erythrocytes was subtracted from the data. The ^3H-incorporation into infected RBCs with 1 μL DMSO vehicle alone represents 100% malaria growth. ED50 values were determined by linear regression analysis of the plots of ^3H-hypoxanthine incorporation versus concentration of compound.

PfPFT = target: T1, PfPFT (Plasmodium falciparum, UniProt Q8I503+Q8IHP6); test: PfPFT inhibition, scintillation proximity assay with partially purified PfPFT; assay type: biochemical; conditions: for inhibition at 0.005 µM: read-out: % Inhibition of PfPFT at 5 nM, inhibitor at 5 nM; for inhibition at 0.05 µM: read-out: % Inhibition of PfPFT at 50 nM, inhibitor at 50 nM
T1 sequence (Q8I503 1-521): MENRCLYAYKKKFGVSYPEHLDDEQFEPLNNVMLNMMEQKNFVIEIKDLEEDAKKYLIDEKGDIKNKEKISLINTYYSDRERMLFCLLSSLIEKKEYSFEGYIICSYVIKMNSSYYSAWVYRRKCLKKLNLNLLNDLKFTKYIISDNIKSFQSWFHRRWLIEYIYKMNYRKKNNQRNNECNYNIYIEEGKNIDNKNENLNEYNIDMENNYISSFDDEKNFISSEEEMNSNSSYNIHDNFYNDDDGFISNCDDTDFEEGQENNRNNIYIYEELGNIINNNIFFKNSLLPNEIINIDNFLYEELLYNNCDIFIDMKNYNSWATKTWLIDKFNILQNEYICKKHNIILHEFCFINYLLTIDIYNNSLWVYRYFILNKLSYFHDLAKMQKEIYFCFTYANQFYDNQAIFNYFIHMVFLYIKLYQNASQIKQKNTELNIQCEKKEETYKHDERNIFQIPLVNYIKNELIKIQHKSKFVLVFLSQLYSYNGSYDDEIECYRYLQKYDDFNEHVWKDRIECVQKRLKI
T1 sequence (Q8IHP6 1-923): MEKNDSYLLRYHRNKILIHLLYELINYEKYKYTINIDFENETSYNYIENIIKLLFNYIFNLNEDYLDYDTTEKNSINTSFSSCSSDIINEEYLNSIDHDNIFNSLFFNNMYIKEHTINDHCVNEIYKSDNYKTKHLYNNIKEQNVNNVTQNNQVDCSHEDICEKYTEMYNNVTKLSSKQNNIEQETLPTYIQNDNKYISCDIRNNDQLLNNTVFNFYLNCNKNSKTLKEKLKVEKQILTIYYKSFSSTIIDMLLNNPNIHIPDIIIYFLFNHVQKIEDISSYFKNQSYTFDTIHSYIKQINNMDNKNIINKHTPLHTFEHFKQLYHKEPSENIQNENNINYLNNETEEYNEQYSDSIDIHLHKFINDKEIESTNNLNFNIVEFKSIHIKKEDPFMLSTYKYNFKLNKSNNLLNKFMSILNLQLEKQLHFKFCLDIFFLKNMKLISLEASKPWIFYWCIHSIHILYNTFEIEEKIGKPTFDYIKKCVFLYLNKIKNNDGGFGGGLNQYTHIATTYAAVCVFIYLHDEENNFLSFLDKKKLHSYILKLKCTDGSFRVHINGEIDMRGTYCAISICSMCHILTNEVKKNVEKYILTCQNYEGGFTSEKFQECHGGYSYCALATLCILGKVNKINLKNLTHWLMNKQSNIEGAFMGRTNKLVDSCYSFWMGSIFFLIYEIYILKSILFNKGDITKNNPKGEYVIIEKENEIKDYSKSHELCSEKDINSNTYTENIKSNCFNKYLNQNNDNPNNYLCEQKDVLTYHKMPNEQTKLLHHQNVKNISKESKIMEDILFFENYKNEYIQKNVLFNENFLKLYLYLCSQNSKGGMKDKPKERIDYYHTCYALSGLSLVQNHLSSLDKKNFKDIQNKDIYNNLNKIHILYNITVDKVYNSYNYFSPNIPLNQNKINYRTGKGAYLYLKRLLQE

P. falciparum 3D7 = test: P. falciparum ED50 determination, [3H]-hypoxanthine incorporation, strain 3D7; assay type: cell-based, Plasmodium falciparum; conditions: Plasmodium falciparum
Source text: as §1, §2, §3

[1] = K1, strain K1, concentration decreasing hypoxanthine incorporation into parasites twofold, read-out: ED50 K1
[2] = 3D7, strain 3D7, concentration decreasing hypoxanthine incorporation into parasites twofold, read-out: ED50 3D7

Compound	EC50 (P. falciparum K1; [1]) [nM]	inhibition at 0.005 µM (PfPFT) [%]	inhibition at 0.05 µM (PfPFT) [%]	EC50 (P. falciparum 3D7; [2]) [nM]	IC50 (PfPFT; concentration decreasing transferase activity twofold) [nM]	EC50 (P. falciparum K1; K1, read-out: ED50 K1) [nM]	EC50 (P. falciparum 3D7; 3D7, read-out: ED50 3D7) [nM]
Cn1cnc(S(=O)(=O)N(CCN(Cc2cncn2C)c2ccc(C#N)cc2)CC2CCOCC2)c1 [Compound 8r, 1-Methyl-1H-imidazole-4-sulfonic acid {2-[(4-cyano-phenyl)-(3-methyl-3H-imidazol-4-ylmethyl)-amino]-ethyl}-(tetrahydro-pyran-4-ylmethyl)-amide]	400	28	84	575	–	–	–
Cn1cnc(S(=O)(=O)N(CCN(Cc2cncn2C)c2ccc(C#N)cc2)Cc2cccc(-c3ccccc3)c2)c1 [Compound 8af, 1-Methyl-1H-imidazole-4-sulfonic acid biphenyl-3-ylmethyl-{2-[(4-cyano-phenyl)-(3-methyl-3H-imidazol-4-ylmethyl)-amino]-ethyl}-amide]	3250	56	93	2400	–	–	–
CC(C)C(=O)N(CCN(Cc1cncn1C)c1ccc(C#N)cc1)Cc1ccccc1 [Compound 8k, N-Benzyl-N-{2-[(4-cyano-phenyl)-(3-methyl-3H-imidazol-4-ylmethyl)-amino]-ethyl}-isobutyramide]	> 5000	0	61	2000	–	–	–
CC(=O)N1CCC(CN(CCN(Cc2cncn2C)c2ccc(C#N)cc2)S(=O)(=O)c2cn(C)cn2)CC1 [Compound 8t, 1-Methyl-1H-imidazole-4-sulfonic acid (1-acetyl-piperidin-4-ylmethyl)-{2-[(4-cyano-phenyl)-(3-methyl-3H-imidazol-4-ylmethyl)-amino]-ethyl}-amide]	3500	8	44	5000	–	–	–
O=S(=O)(c1ccc2ccccc2c1)N(CCN(Cc1cnc[nH]1)c1ccccc1)Cc1ccccc1 [Compound 3e, Naphthalene-2-sulfonic acid benzyl-{2-[(3H-imidazol-4-ylmethyl)-phenyl-amino]-ethyl}-amide]	–	–	0	–	–	–	–
Cn1cncc1CN(CCN(Cc1ccccc1)S(=O)(=O)c1cccs1)c1ccc(C#N)cc1 [Compound 8f, Thiophene-2-sulfonic acid benzyl-{2-[(4-cyano-phenyl)-(3-methyl-3H-imidazol-4-ylmethyl)-amino]-ethyl}-amide]	1120	17	74	550	–	–	–
Cn1cnc(S(=O)(=O)N(CCN(Cc2cncn2C)c2ccc(C#N)cc2)Cc2cccnc2)c1 [Compound 8ab, 1-Methyl-1H-imidazole-4-sulfonic acid {2-[(4-cyano-phenyl)-(3-methyl-3H-imidazol-4-ylmethyl)-amino]-ethyl}-pyridin-3-ylmethyl-amide]	4250	18	74	2800	–	–	–
CN(C)c1cccc2c(S(=O)(=O)N(CCN(Cc3cnc[nH]3)c3ccccc3)Cc3ccccc3)cccc12 [Compound 3g, 5-Dimethylamino-naphthalene-1-sulfonic acid benzyl-{2-[(3H-imidazol-4-ylmethyl)-phenyl-amino]-ethyl}-amide]	–	–	0	–	–	–	–
Cn1cnc(S(=O)(=O)N(CCN(Cc2cncn2C)c2ccc(C#N)cc2)CC2CCN(c3ncccn3)CC2)c1 [Compound 8w, 1-Methyl-1H-imidazole-4-sulfonic acid {2-[(4-cyano-phenyl)-(3-methyl-3H-imidazol-4-ylmethyl)-amino]-ethyl}-(1-pyrimidin-2-yl-piperidin-4-ylmethyl)-amide]	85	74	96	130	1.5	–	–
Cc1ccc(CN(CCN(Cc2cncn2C)c2ccc(C#N)cc2)S(=O)(=O)c2cn(C)cn2)cc1 [Compound 8z, 1-Methyl-1H-imidazole-4-sulfonic acid {2-[(4-cyano-phenyl)-(3-methyl-3H-imidazol-4-ylmethyl)-amino]-ethyl}-(4-methyl-benzyl)-amide]	–	45	54	–	–	> 5000	2700
Cc1ccc(CS(=O)(=O)N(CCN(Cc2cnc[nH]2)c2ccccc2)Cc2ccccc2)cc1 [Compound 3d, N-Benzyl-N-{2-[(3H-imidazol-4-ylmethyl)-phenyl-amino]-ethyl}-C-p-tolyl-methanesulfonamide]	–	–	3	–	–	–	–
CC(C)C(=O)N1CCC(CN(CCN(Cc2cncn2C)c2ccc(C#N)cc2)S(=O)(=O)c2cn(C)cn2)CC1 [Compound 8u, 1-Methyl-1H-imidazole-4-sulfonic acid {2-[(4-cyano-phenyl)-(3-methyl-3H-imidazol-4-ylmethyl)-amino]-ethyl}-(1-isobutyryl-piperidin-4-ylmethyl)-amide]	180	57	92	230	–	–	–
Cn1cnc(S(=O)(=O)N(CCN(Cc2cncn2C)c2ccc(C#N)cc2)Cc2ccncc2)c1 [Compound 8ac, 1-Methyl-1H-imidazole-4-sulfonic acid {2-[(4-cyano-phenyl)-(3-methyl-3H-imidazol-4-ylmethyl)-amino]-ethyl}-pyridin-4-ylmethyl-amide]	5000	22	62	3700	–	–	–
Cn1cnc(S(=O)(=O)N(CCN(Cc2cnc[nH]2)c2ccc(Br)cc2)Cc2ccccc2)c1 [Compound 8a, 1-Methyl-1H-imidazole-4-sulfonic acid benzyl-{2-[(4-bromo-phenyl)-(3H-imidazol-4-ylmethyl)-amino]-ethyl}-amide]	–	–	80	–	–	–	–
Cn1cnc(S(=O)(=O)N(CCN(Cc2cnc[nH]2)c2ccccc2)Cc2ccccc2)c1 [Compound 3c, 1-Methyl-1H-imidazole-4-sulfonic acid benzyl-{2-[(3H-imidazol-4-ylmethyl)-phenyl-amino]-ethyl}-amide]	–	–	32	–	–	–	–
O=S(=O)(c1cccc2cccnc12)N(CCN(Cc1cnc[nH]1)c1ccccc1)Cc1ccccc1 [Compound 3f, Quinoline-8-sulfonic acid benzyl-{2-[(3H-imidazol-4-ylmethyl)-phenyl-amino]-ethyl}-amide]	–	–	0	–	–	–	–
